Where a name gives a salt, the structure may show the parent alone.
Tested on: restless legs syndrome
Test: Oral preparation given to patients diagnosed with restless legs syndrome
Type: in vivo, human
Conditions: 10 μg oral soft capsule; for time until abnormal sensation disappeared after taking the preparation: RLS patient
Method: A solution containing 10 μg of (−)-17-(cyclopropylmethyl)-3,14β-dihydroxy-4,5α-epoxy-6β[N-methyl-trans-3-(3-furyl)acrylamide]morphinan hydrochloric acid salt 1 [drawing 10]
was encapsulated into a soft capsule made of gelatin to obtain an oral preparation. This oral preparation was administered to two patients who had been diagnosed as restless legs syndrome. Both of the two patients complained abnormal itchy sensation on the lower limbs and sleep is sometimes disturbed. By taking the oral preparation, the abnormal sensation disappeared 2 hours after taking the preparation in one patient, and 4 hours after taking the preparation in another patient.

SMILES: CN(C(=O)/C=C/c1ccoc1)[C@@H]1CC[C@@]2(O)C3Cc4ccc(O)c5c4[C@@]2(CCN3CC2CC2)[C@H]1O5 (single isomer, unassigned; (-)) [Compound 1, (−)-17-(cyclopropylmethyl)-3,14β-dihydroxy-4,5α-epoxy-6β[N-methyl-trans-3-(3-furyl)acrylamide]morphinan hydrochloric acid salt]
- time until abnormal sensation disappeared after taking the preparation (another patient): 4 h
- time until abnormal sensation disappeared after taking the preparation (one patient): 2 h
- duration of the effect for eliminating the abnormal sensation (both of the two RLS patients): ≥ 24 h
- sleep disturbance in the night (both of the two RLS patients): sleep disturbance did not occur
- therapeutic effect against restless legs syndrome (two RLS patients): clearly had therapeutic effect against restless legs syndrome

From patent US20040116456A1, “Remedies for psychoneurosis” (priority 2001, published 2004)
